Consider 3 molecules from patent publication US8999326B2, “Oncotherapeutic application of inhibitors of high-affinity glucose transporters” (University of South Florida, priority 2007, dated 2015).

This assay has as its system H1299, H1650 and MCF-7 cells. As to the kind of experiment: BrdU proliferation assay, statements for all three cell lines. It counts as cell-based, human. Particulars: 5 μM cisplatin, 5 μM paclitaxel or 10 μM gefitinib. As to the method:
FIGS. 5A-5C show the combined effect of chemotherapeutic drugs and Glut-1 antibody on cell proliferation. H1299 (FIG. 5A), H1650 (FIG. 5B), and MCF-7 (FIG. 5C) cells were grown on chamber slides as described above and treated either with cisplatin, paclitaxel or iressa in presence or absence of Glut-1 antibody (0.1 mg) for 18 hours. The proliferation was measured by BrdU incorporation.
MCF-7, H1299 and H1650 cells were plated onto poly-D-lysine (Sigma) coated 8-well glass chamber slides (10,000 cells per well). The cells were incubated with 0.1 mg/ml Glut-1 monoclonal antibody for 18 hours. The cells were fixed and stained using 5-Bromo-2′ deoxyuridine labeling and detection kit from ROCHE according to manufacturer's protocol.
Experiments were done to evaluate whether anti-Glut-1 antibody could synergize with standard chemotherapeutic agents to inhibit proliferation of H1299, H1650 and MCF-7. The cells were plated on chamber slides and incubated in presence of chemotherapeutic agents (5 μM cisplatin, 5 μM paclitaxel or 10 μM geftinib) in absence or presence of 0.1 mg/ml anti-Glut-1 antibody.
On to `N.N.[Cl][Pt][Cl]` [cisplatin], for which the “effect of drug alone on proliferation” value is listed as “significant decrease in proliferation”.

`COc1cc2ncnc(Nc3ccc(F)c(Cl)c3)c2cc1OCCCN1CCOCC1` [gefitinib]: the “effect of drug alone on proliferation” value was “significant decrease in proliferation”.

With `CC(=O)O[C@H]1C(=O)[C@@]2(C)[C@H]([C@H](OC(=O)c3ccccc3)[C@]3(O)C[C@H](OC(=O)[C@H](O)[C@@H](NC(=O)c4ccccc4)c4ccccc4)C(C)=C1C3(C)C)[C@]1(OC(C)=O)CO[C@@H]1C[C@@H]2O` [paclitaxel], the “effect of drug alone on proliferation” value is reported as “significant decrease in proliferation”.
